Measurements taken from patent US11377442B2, “Small molecule agonists and antagonists of NR2F6 activity” (ZANDER THERAPEUTICS, INC., priority 2016, dated 2022).
Read-outs that look alike come from different tables or passages of the source.

How the values were obtained:
Type in all cases: cell-based
NR2F6 = target: T1, NR2F6 (Homo sapiens, UniProt P10588); assay: NR2F6 agonist screening, Firefly signal cmpd/DMSO
T1 construct: expressed in transfected cells; also transient transfection
T1 sequence (P10588 1-404): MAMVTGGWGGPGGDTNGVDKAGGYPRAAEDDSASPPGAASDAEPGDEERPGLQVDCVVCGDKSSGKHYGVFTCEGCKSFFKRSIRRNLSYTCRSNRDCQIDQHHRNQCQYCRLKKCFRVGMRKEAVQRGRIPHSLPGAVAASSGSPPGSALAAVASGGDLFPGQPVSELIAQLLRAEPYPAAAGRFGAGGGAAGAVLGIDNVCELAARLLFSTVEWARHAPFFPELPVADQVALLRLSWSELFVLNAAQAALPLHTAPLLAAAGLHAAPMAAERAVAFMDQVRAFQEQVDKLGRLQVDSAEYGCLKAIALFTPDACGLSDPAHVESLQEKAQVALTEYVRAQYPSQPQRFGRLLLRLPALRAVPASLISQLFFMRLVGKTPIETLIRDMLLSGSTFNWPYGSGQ

ERα [1] = target: T2, ERα (Homo sapiens, UniProt P03372); assay: Counterscreening, Firefly signal with ERα transient transfection (Firefly_ERa); conditions: 10 uM
T2 construct: expressed in transfected cells
T2 sequence (P03372 1-595): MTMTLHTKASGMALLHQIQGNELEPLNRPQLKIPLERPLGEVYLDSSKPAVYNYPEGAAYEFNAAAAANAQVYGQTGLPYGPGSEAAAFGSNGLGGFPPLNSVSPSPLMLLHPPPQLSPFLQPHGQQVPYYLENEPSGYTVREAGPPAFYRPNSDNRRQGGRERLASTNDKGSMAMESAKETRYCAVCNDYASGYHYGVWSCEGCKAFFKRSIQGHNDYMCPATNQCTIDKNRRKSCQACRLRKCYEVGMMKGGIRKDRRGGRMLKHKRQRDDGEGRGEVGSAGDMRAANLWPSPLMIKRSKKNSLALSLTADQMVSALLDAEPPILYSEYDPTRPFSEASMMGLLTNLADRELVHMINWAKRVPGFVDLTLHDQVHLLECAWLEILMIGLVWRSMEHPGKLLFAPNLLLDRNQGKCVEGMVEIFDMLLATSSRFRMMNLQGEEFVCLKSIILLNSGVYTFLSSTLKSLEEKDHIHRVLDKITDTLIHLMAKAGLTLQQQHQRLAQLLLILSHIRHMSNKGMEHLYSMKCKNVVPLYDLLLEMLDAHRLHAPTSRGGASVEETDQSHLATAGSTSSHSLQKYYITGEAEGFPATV
Protocol: The methodology for screening candidate compounds as NR2F6 agonists was as follows: For primary screening, hit criteria was ACT %>DMSO control+5*SD (DSO control) at 10 μM, or any compound with S/B>2. For rescreening, hit criteria was ACT %>DMSO control+3*SD (DSO control) in each replicate at 10 μM. For counterscreening, hit criteria was mean ACT<DMSO control+3*SD (DMSO control) with ERα transient transfection in duplicate at 10 μM.

Renilla = Renilla signal in NR2F6 agonist screening, cmpd/DMSO; conditions: for fold induction at 2 µM / fold induction at 10 µM / fold induction at 40 µM: Renilla, read-out: Renilla F4, cmpd/DMSO (mean)
Renilla_ERa = assay: Renilla signal in ERα counterscreen (Renilla_ERa); conditions: for fold induction at 2 µM / fold induction at 10 µM / fold induction at 40 µM: read-out: Renilla ERalpha transient, cmpd/DMSO (mean)
ERα [2] = target: T2, ERα; assay: Counterscreening, Firefly signal with ERα transient transfection (Firefly_ERa)

| Firefly F4, cmpd/DMSO (mean) (NR2F6; 2 uM, clone F4) | Firefly F4, cmpd/DMSO (mean) (NR2F6; 10 uM, clone F4) | Firefly F4, cmpd/DMSO (mean) (NR2F6; 40 uM, clone F4) | Firefly ERalpha transient, cmpd/DMSO (mean) (ERα [1]) | Firefly ERalpha transient, cmpd/DMSO (mean) (ERα [2]; 2 uM) | Firefly ERalpha transient, cmpd/DMSO (mean) (ERα [2]; 40 uM) | Firefly F4, cmpd/DMSO (mean) (NR2F6; Table 15, 2 uM) | Firefly F4, cmpd/DMSO (mean) (NR2F6; Table 15, 10 uM) | Firefly F4, cmpd/DMSO (mean) (NR2F6; Table 15, 40 uM) | Firefly ERalpha transient, cmpd/DMSO (mean) (ERα [1]; Table 15) | SMILES | fold induction at 2 µM (Renilla; 2 uM, clone F4) | fold induction at 10 µM (Renilla; 10 uM, clone F4) | fold induction at 40 µM (Renilla; 40 uM, clone F4) | fold induction at 2 µM (Renilla_ERa; 2 uM) | fold induction at 10 µM (Renilla_ERa; 10 uM) | fold induction at 40 µM (Renilla_ERa; 40 uM) | fold induction at 2 µM (Renilla; Table 15, 2 uM) | fold induction at 10 µM (Renilla; Table 15, 10 uM) | fold induction at 40 µM (Renilla; Table 15, 40 uM) | fold induction at 2 µM (Renilla_ERa; Table 15, 2 uM) | other results |
| --- | --- | --- | --- | --- | --- | --- | --- | --- | --- | --- | --- | --- | --- | --- | --- | --- | --- | --- | --- | --- | --- |
| 1.0 | 1.1 | 1.7 | 1.4 | 0.9 | 1.6 | – | – | – | – | COc1ccc2nc(C(F)(F)F)c(C#N)c(N3CCN(C)CC3)c2c1 [Compound Z41] | 0.7 | 0.6 | 0.6 | 1 | 1.1 | 0.8 | – | – | – | – | – |
| 0.8 | 0.7 | 0.8 | 0.3 | 1.0 | 1.0 | – | – | – | – | COc1ccc2nc(C(F)(F)F)c(C#N)c(NCCOc3ccc(Cl)cc3)c2c1 [Compound Z40] | 0.7 | 0.6 | 0.5 | 1 | 0.7 | 0.6 | – | – | – | – | – |
| 0.9 | 0.5 | 0.7 | 0.3 | 1.5 | 0.5 | – | – | – | – | N#Cc1c(C(F)(F)F)nc2ccc(Cl)cc2c1NC1CC1 [Compound Z48] | 0.8 | 0.6 | 0.6 | 1.1 | 0.8 | 0.6 | – | – | – | – | – |
| 0.6 | 0.6 | 0.7 | 0.8 | 1.3 | 0.4 | – | – | – | – | N#Cc1c(C(F)(F)F)nc2ccc(Oc3ccccc3)cc2c1N1CCNCC1 [Compound Z51] | 0.8 | 0.7 | 0.3 | 1.1 | 0.9 | 0.3 | – | – | – | – | – |
| – | – | – | – | – | – | 1.7 | 2.5 | 0.8 | 9.1 | CCOC(=O)c1cnc2c(C)cc(C)cc2c1NCCCN1CCCC1 [Compound Z61] | – | – | – | – | – | – | 1.3 | 0.5 | 0.6 | 1.4 | fold induction at 10 µM (Renilla_ERa; Table 15, 10 uM): 0.8; fold induction at 40 µM (Renilla_ERa; Table 15, 40 uM): 0.7; Firefly ERalpha transient, cmpd/DMSO (mean) (ERα [2]; Table 15, 2 uM): 3.0; Firefly ERalpha transient, cmpd/DMSO (mean) (ERα [2]; Table 15, 40 uM): 0.7 |
| 0.8 | 1.0 | 0.7 | 0.5 | 1.2 | 0.8 | – | – | – | – | COc1ccc2nc(C(F)(F)F)c(C#N)c(NCCc3ccc(Cl)cc3)c2c1 [Compound Z39] | 0.7 | 0.5 | 0.5 | 1.1 | 0.6 | 0.6 | – | – | – | – | – |

Further lines, the compound ahead of its results:

| SMILES | Firefly F4, cmpd/DMSO (mean) (NR2F6; 2 uM, clone F4) | Firefly F4, cmpd/DMSO (mean) (NR2F6; 10 uM, clone F4) | Firefly F4, cmpd/DMSO (mean) (NR2F6; 40 uM, clone F4) | Firefly ERalpha transient, cmpd/DMSO (mean) (ERα [1]) | Firefly ERalpha transient, cmpd/DMSO (mean) (ERα [2]; 2 uM) | Firefly ERalpha transient, cmpd/DMSO (mean) (ERα [2]; 40 uM) | Firefly F4, cmpd/DMSO (mean) (NR2F6; Table 15, 2 uM) | Firefly F4, cmpd/DMSO (mean) (NR2F6; Table 15, 10 uM) | Firefly F4, cmpd/DMSO (mean) (NR2F6; Table 15, 40 uM) | Firefly ERalpha transient, cmpd/DMSO (mean) (ERα [1]; Table 15) | fold induction at 2 µM (Renilla; 2 uM, clone F4) | fold induction at 10 µM (Renilla; 10 uM, clone F4) | fold induction at 40 µM (Renilla; 40 uM, clone F4) | fold induction at 2 µM (Renilla_ERa; 2 uM) | fold induction at 10 µM (Renilla_ERa; 10 uM) | fold induction at 40 µM (Renilla_ERa; 40 uM) | fold induction at 2 µM (Renilla; Table 15, 2 uM) | fold induction at 10 µM (Renilla; Table 15, 10 uM) | fold induction at 40 µM (Renilla; Table 15, 40 uM) | fold induction at 2 µM (Renilla_ERa; Table 15, 2 uM) | other results |
| --- | --- | --- | --- | --- | --- | --- | --- | --- | --- | --- | --- | --- | --- | --- | --- | --- | --- | --- | --- | --- | --- |
| COc1cccc(-c2noc(Cn3ncccc3=O)n2)c1 [Compound Z5] | – | – | – | – | – | – | 1.5 | 0.9 | 1.2 | 2.5 | – | – | – | – | – | – | 1 | 0.9 | 1.2 | 1 | fold induction at 10 µM (Renilla_ERa; Table 15, 10 uM): 1; fold induction at 40 µM (Renilla_ERa; Table 15, 40 uM): 1; Firefly ERalpha transient, cmpd/DMSO (mean) (ERα [2]; Table 15, 2 uM): 2.4; Firefly ERalpha transient, cmpd/DMSO (mean) (ERα [2]; Table 15, 40 uM): 2.4 |
| Cc1ccc(NC(=O)c2n[nH]c3c2CCCCC3)cc1C [Compound Z2] | – | – | – | – | – | – | 1.4 | 1.9 | 0.6 | 1.1 | – | – | – | – | – | – | 1.2 | 1.8 | 1.2 | 1.2 | fold induction at 10 µM (Renilla_ERa; Table 15, 10 uM): 1.1; fold induction at 40 µM (Renilla_ERa; Table 15, 40 uM): 1; Firefly ERalpha transient, cmpd/DMSO (mean) (ERα [2]; Table 15, 2 uM): 1.6; Firefly ERalpha transient, cmpd/DMSO (mean) (ERα [2]; Table 15, 40 uM): 0.7 |
| COc1cccc(-c2noc(Cn3ncc(Cl)cc3=O)n2)c1 [Compound Z4] | – | – | – | – | – | – | 1.5 | 1.2 | 0.8 | 1.4 | – | – | – | – | – | – | 1.1 | 1.6 | 1.4 | 1.2 | fold induction at 10 µM (Renilla_ERa; Table 15, 10 uM): 1.1; fold induction at 40 µM (Renilla_ERa; Table 15, 40 uM): 0.8; Firefly ERalpha transient, cmpd/DMSO (mean) (ERα [2]; Table 15, 2 uM): 1.5; Firefly ERalpha transient, cmpd/DMSO (mean) (ERα [2]; Table 15, 40 uM): 0.8 |
| CCCCCCNc1nc(OCC)nc(N2CCn3c(cccc3=O)C2)n1 [Compound 40] | 0.9 | 1.0 | 0.8 | 1.0 | 1.0 | 0.7 | – | – | – | – | – | – | – | – | – | – | – | – | – | – | Renilla F4, cmpd/DMSO (mean) (Renilla; 2 uM, clone F4): 1.1; Renilla F4, cmpd/DMSO (mean) (Renilla; 10 uM, clone F4): 1.3; Renilla F4, cmpd/DMSO (mean) (Renilla; 40 uM, clone F4): 1.0; Renilla ERalpha transient, cmpd/DMSO (mean) (Renilla_ERa; 2 uM): 1.2; Renilla ERalpha transient, cmpd/DMSO (mean) (Renilla_ERa; 10 uM): 1.2; Renilla ERalpha transient, cmpd/DMSO (mean) (Renilla_ERa; 40 uM): 1.1 |
| CC1CCN(c2nc(NCCN3CCOCC3)nc(N3CC4CC(C3)c3cccc(=O)n3C4)n2)CC1 (stereo not drawn) [Compound 43] | 1.0 | 0.9 | 0.8 | 1.4 | 1.4 | 1.2 | – | – | – | – | 1 | 1.1 | 1.1 | 1.1 | 1 | 1 | – | – | – | – | – |
| CCOC(=O)c1cnc2c(Cl)cc(Cl)cc2c1NCCCN(C)C [Compound Z35] | 1.9 | 1.5 | 1.2 | 2.2 | 2.6 | 7.2 | – | – | – | – | 1.1 | 2 | 0.7 | 1.1 | 1.3 | 0.9 | – | – | – | – | – |
| CCCNc1nc(N2CCOCC2)nc(N2CC3CC(C2)c2cccc(=O)n2C3)n1 (stereo not drawn) [Compound 37] | 1.3 | 1.1 | 1.3 | 1.4 | 1.1 | 1.2 | – | – | – | – | 0.9 | 1.2 | 1.3 | 1.1 | 1.1 | 1.1 | – | – | – | – | – |
